In patent publication US5614623A, “Diastereomers of 1-(isopropoxycarbonyloxy)ethyl 3-cephem-4-carboxylate and processes for their preparation” (Hoechst Aktiengesellschaft, priority 1991, dated 1997):
Like-named read-outs stand apart in the source and are kept apart here. Values belong to the molecule of their own block, whether it stands above or below them.

Experiments:
[1] = diastereomers; T. Nishimura et al., The Journal of Antibiotics 40, 81-90 (1987); cited from earlier work
[2] = recovery rate of the cephalosporin with free carboxyl group in the urine of dogs after oral administration of the diastereomeric prodrug ester (enteral absorption); type: in vivo; conditions: for bioavailability: comparison between the diastereomers / with the diastereomer mixture of cefpodoxime proxetil
[3] = stability under the conditions of column chromatography; type: physicochemical; conditions: both diastereomers and the diastereomer mixture
[4] = various animal species and man; cited from earlier work
[5] = tested on: enzymes endogenous to the body; conditions: after absorption, by enzymes endogenous to the body; cited from earlier work

SMILES: CC(OC(=O)OC1CCCCC1)OC(=O)C1=C(CSc2nnnn2CCN(C)C)CS[C@@H]2[C@H](NC(=O)Cc3csc(N)n3)C(=O)N12 (stereo partly shown) [cefotiam hexetil]
effect of configuration in the 1-position on the level of enteral absorption [1]: no effect on the level of enteral absorption

enteral absorption ([2]; as shown in Table 1): increased enteral absorption | bioavailability ([2]; listed as the more polar of the two diastereomers): higher bioavailability
SMILES: COCC1=C(C(=O)OC(C)OC(=O)OC(C)C)N2C(=O)[C@@H](NC(=O)/C(=N\OC)c3csc(N)n3)[C@H]2SC1 (single isomer, unassigned; diastereomer b) [Example 8]
bioavailability ([2]; listed as the more absorbable diastereomer): higher bioavailability than the diastereomer mixture

stability [3]: unstable
SMILES: COCC1=C(C(=O)OC(C)OC(=O)OC(C)C)N2C(=O)[C@@H](NC(=O)/C(=N\OC)c3csc(N)n3)[C@H]2SC1 (mixture of isomers) [cefpodoxime proxetil, 1-(Isopropoxycarbonyloxy)ethyl (6R, 7R)-7-[2-(2-aminothiazol-4-yl)-2-(Z)-(methoxyimino)acetamido]-3-methoxymethyl-3-cephem-4-carboxylate (diastereomer mixture, Cefpodoxime Proxetil)]
enteral absorption [4]: readily enterally absorbed | cleavage to the antibiotically active cephalosporin having a free carboxyl group [5]: rapidly and completely cleaved
